Source: ChEMBL document CHEMBL4152201, “Novel sarsasapogenin-triazolyl hybrids as potential anti-Alzheimer's agents: Design, synthesis and biological evaluation” (Eur J Med Chem, 2018)
Each block holds one compound with its values, some of them ahead of it. Calls of active or inactive are those of the source. The calls are words filed in the database; no cut-off is given here.

What was measured:
SH-SY5Y [1] = test: Neuroprotective activity against H2O2-induced oxidative stress in human SH-SY5Y cells assessed as cell viability at 12.5 uM pre-incubated for 1 hr followed by H2O2 addition and measured after 4 hrs by MTT assay relative to control; format: functional; conditions: read-out: Activity
SH-SY5Y [2] = test: Neuroprotective activity against H2O2-induced oxidative stress in human SH-SY5Y cells assessed as cell viability at 25 uM pre-incubated for 1 hr followed by H2O2 addition and measured after 4 hrs by MTT assay relative to control; format: functional; conditions: read-out: Activity
SH-SY5Y [3] = test: Neuroprotective activity against H2O2-induced oxidative stress in human SH-SY5Y cells assessed as cell viability at 50 uM pre-incubated for 1 hr followed by H2O2 addition and measured after 4 hrs by MTT assay relative to control; format: functional; conditions: read-out: Activity
[4] = molecular target: T1, Amyloid-beta precursor protein (Homo sapiens, UniProt P05067); test: Inhibition of amyloid beta (1 to 42) (unknown origin) self-aggregation at 20 uM after 24 hrs by thioflavin-T fluorescence assay relative to control
[5] = molecular target: T1, Amyloid-beta precursor protein; test: Inhibition of amyloid beta (1 to 42) (unknown origin) self-aggregation after 24 hrs by thioflavin-T fluorescence assay
SH-SY5Y [6] = test: Cytotoxicity against human SH-SY5Y cells at 50 uM after 24 hrs by MTT assay; format: cell-based
Mus musculus [7] = test: Cognitive enhancing effect in Kunming mouse model of amyloid beta (1 to 42) oligomer-induced memory impairment assessed as […] in spontaneous alternation behaviors at 17.5 to 35 mg/kg/day, po starting from day 1 of amyloid beta (1 to 42) oligomer treatment and measured on day 7 by Y-maze test; format: functional, organism-based
Mus musculus [8] = test: Toxicity in Kunming mouse model of amyloid beta (1 to 42) oligomer-induced memory impairment assessed as effect on number of arm entries at 17.5 to 35 mg/kg/day, po starting from day 1 of amyloid beta (1 to 42) oligomer treatment and measured on day 7 by Y-maze test; format: organism-based; conditions: in vivo
Mus musculus [9] = test: (§1) Memory enhancing effect in Kunming mouse model of amyloid beta (1 to 42) oligomer-induced memory impairment assessed as increase in preferential index in retention session of 1 hr at 17.5 to 35 mg/kg/day, po starting from day 1 of amyloid beta (1 to 42) oligomer treatment and measured on day 7 by novel object recognition test; format: functional, organism-based
Mus musculus [10] = test: (§2) Cognitive enhancing effect in Kunming mouse model of amyloid beta (1 to 42) oligomer-induced memory impairment increase in time spent in target quadrant by measuring increase in number of platform crossings at 17.5 to 35 mg/kg/day, po starting from day 1 of amyloid beta (1 to 42) oligomer treatment and measured on day 12 by Morris water maze test; format: functional, organism-based
Mus musculus [11] = test: (§3) Cognitive enhancing effect in Kunming mouse model of amyloid beta (1 to 42) oligomer-induced memory impairment assessed as longer escape latency at 17.5 to 35 mg/kg, po starting from day 1 of amyloid beta (1 to 42) oligomer treatment and measured on day 7 by passive avoidance test; format: functional, organism-based
Mus musculus [12] = test: as §3, with “induction of fewer entries into dark compartment” for “longer escape latency”; format: functional, organism-based
Mus musculus [13] = test: (§4) Neuroprotective activity in Kunming mouse model of amyloid beta (1 to 42) oligomer-induced memory impairment assessed as reduction in neural degeneration in CA1 region at 17.5 to 35 mg/kg, po starting from day 1 of amyloid beta (1 to 42) oligomer treatment and measured on day 7 by Nissl's staining-based assay; format: functional, organism-based
Mus musculus [14] = test: as §4, with “neuronal” for “neural”, “degeneration by measuring clear and intact neurons” for “degeneration”, “CA1 and CA3” for “CA1”, “TUNEL” for “Nissl's staining-based”; format: functional, organism-based
Mus musculus [15] = test: (§5) Neuroprotective activity in Kunming mouse model of amyloid beta (1 to 42) oligomer-induced memory impairment assessed as reduction in neuronal degeneration by measuring reduction in degenerative changes in nucleus of CA1 and CA3 region at 17.5 to 35 mg/kg, po starting from day 1 of amyloid beta (1 to 42) oligomer treatment and measured on day 7 by TUNEL assay; format: functional, organism-based
Mus musculus [16] = test: Neuroprotective activity amyloid beta (1 to 42) oligomer-induced memory impaired Kunming mouse assessed as reduction in apoptotic cells in CA1 and CA3 hipocampal neurons at 35 mg/kg, po starting from day 1 of amyloid beta (1 to 42) oligomer treatment and measured on day 7 by TUNEL assay; format: functional, organism-based
[17] = molecular target: T1, Amyloid-beta precursor protein; test: Potency index, ratio of IC50 for curcumin to IC50 for test compound for inhibition of amyloid beta (1 to 42) (unknown origin) self-aggregation after 24 hrs by thioflavin-T fluorescence assay
Mus musculus [18] = test: Neuroprotective activity amyloid beta (1 to 42) oligomer-induced memory impaired Kunming mouse assessed as reduction in apoptotic cells in CA1 and CA3 hipocampal neurons at 1.3 mg/kg, po starting from day 1 of amyloid beta (1 to 42) oligomer treatment and measured on day 7 by TUNEL assay; format: functional, organism-based
Mus musculus [19] = test: Cognitive enhancing effect in Kunming mouse model of amyloid beta (1 to 42) oligomer-induced memory impairment assessed as […] in spontaneous alternation behaviors at 1.3 mg/kg/day, po starting from day 1 of amyloid beta (1 to 42) oligomer treatment and measured on day 7 by Y-maze test; format: functional, organism-based
Mus musculus [20] = test: Toxicity in Kunming mouse model of amyloid beta (1 to 42) oligomer-induced memory impairment assessed as effect on number of arm entries at 1.3 mg/kg/day, po starting from day 1 of amyloid beta (1 to 42) oligomer treatment and measured on day 7 by Y-maze test; format: organism-based; conditions: in vivo
Mus musculus [21] = test: as §1, with “1.3” for “17.5 to 35”; format: functional, organism-based
Mus musculus [22] = test: as §2, with “1.3” for “17.5 to 35”; format: functional, organism-based
Mus musculus [23] = test: (§6) Cognitive enhancing effect in Kunming mouse model of amyloid beta (1 to 42) oligomer-induced memory impairment assessed as longer escape latency at 1.3 mg/kg, po starting from day 1 of amyloid beta (1 to 42) oligomer treatment and measured on day 7 by passive avoidance test; format: functional, organism-based
Mus musculus [24] = test: as §6, with “induction of fewer entries into dark compartment” for “longer escape latency”; format: functional, organism-based
Mus musculus [25] = test: as §4, with “1.3” for “17.5 to 35”; format: functional, organism-based
Mus musculus [26] = test: as §5, with “measuring clear and intact neurons” for “measuring reduction”, “in” for “in degenerative changes in nucleus of”, “at 1.3” for “at 17.5 to 35”; format: functional, organism-based
Mus musculus [27] = test: as §5, with “1.3” for “17.5 to 35”; format: functional, organism-based

T1 sequence (P05067 whole entry): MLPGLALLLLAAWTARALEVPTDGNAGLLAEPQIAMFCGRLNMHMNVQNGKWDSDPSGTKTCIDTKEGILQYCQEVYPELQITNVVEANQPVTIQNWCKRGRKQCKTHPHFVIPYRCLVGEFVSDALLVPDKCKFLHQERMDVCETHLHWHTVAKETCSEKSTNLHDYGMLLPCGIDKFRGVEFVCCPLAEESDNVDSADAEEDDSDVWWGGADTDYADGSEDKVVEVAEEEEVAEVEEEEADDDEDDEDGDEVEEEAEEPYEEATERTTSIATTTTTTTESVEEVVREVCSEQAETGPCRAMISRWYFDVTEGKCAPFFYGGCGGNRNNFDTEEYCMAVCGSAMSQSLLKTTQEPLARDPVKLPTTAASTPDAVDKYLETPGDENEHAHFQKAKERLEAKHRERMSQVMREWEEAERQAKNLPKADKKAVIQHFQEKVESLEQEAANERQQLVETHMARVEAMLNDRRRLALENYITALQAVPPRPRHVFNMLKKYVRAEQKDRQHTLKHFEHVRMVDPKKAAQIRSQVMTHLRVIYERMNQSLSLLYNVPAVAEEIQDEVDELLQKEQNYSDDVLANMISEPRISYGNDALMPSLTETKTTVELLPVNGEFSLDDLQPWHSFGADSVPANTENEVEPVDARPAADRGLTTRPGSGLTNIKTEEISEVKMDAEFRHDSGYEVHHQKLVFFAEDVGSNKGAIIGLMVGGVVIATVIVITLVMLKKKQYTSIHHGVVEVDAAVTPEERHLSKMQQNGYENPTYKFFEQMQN

Structure (SMILES): Cc1c(C)c2c(c(C)c1O)CCC(C)(C(=O)O)O2 (stereo unspecified) [TROLOX]
viability at 12.5 µM (SH-SY5Y [1]): 78.4% | viability at 25 µM (SH-SY5Y [2]): 80.1% | viability at 50 µM (SH-SY5Y [3]): 78.4%

Structure (SMILES): C[C@H]1[C@H]2[C@H](C[C@H]3[C@@H]4CC[C@@H]5C[C@@H](OCc6ccccc6)CC[C@]5(C)[C@H]4CC[C@]23C)O[C@@H]1CC[C@H](C)C(=O)NCc1cn(Cc2ccccc2)nn1
inhibition [4]: 64.2%

Structure (SMILES): C[C@H]1[C@H]2[C@H](C[C@H]3[C@@H]4CC[C@@H]5C[C@@H](OCc6ccccc6)CC[C@]5(C)[C@H]4CC[C@]23C)O[C@@H]1CC[C@H](C)C(=O)NCc1cn(Cc2cscn2)nn1
inhibition [4]: 75.1% | IC50 [5]: 8.28 µM | Activity (SH-SY5Y [6]): Non-Toxic | viability at 12.5 µM (SH-SY5Y [1]): 71.6% | viability at 25 µM (SH-SY5Y [2]): 73.3% | viability at 50 µM (SH-SY5Y [3]): 84.9% | Activity (Mus musculus [7]): Active | Activity (Mus musculus [8]): Non-Toxic | Activity (Mus musculus [9]): Active | Activity (Mus musculus [10]): Active | Activity (Mus musculus [11]): Active | Activity (Mus musculus [12]): Active | Activity (Mus musculus [13]): Active | Activity (Mus musculus [14]): Active | Activity (Mus musculus [15]): Active | Activity (Mus musculus [16]): Active | Ratio IC50 [17]: 1.8

Structure (SMILES): COc1cccc(Cn2cc(CNC(=O)[C@@H](C)CC[C@H]3O[C@H]4C[C@H]5[C@@H]6CC[C@@H]7C[C@@H](OCc8ccccc8)CC[C@]7(C)[C@H]6CC[C@]5(C)[C@H]4[C@@H]3C)nn2)c1
inhibition [4]: 64.8%

Structure (SMILES): COc1cc2c(cc1OC)C(=O)C(CC1CCN(Cc3ccccc3)CC1)C2.Cl (stereo unspecified) [DONEPEZIL HYDROCHLORIDE]
Activity (Mus musculus [18]): Active | Activity (Mus musculus [19]): Active | Activity (Mus musculus [20]): Non-Toxic | Activity (Mus musculus [21]): Active | Activity (Mus musculus [22]): Active | Activity (Mus musculus [23]): Active | Activity (Mus musculus [24]): Active | Activity (Mus musculus [25]): Active | Activity (Mus musculus [26]): Active | Activity (Mus musculus [27]): Active

Structure (SMILES): C[C@H]1[C@H]2[C@H](C[C@H]3[C@@H]4CC[C@@H]5C[C@@H](OCc6ccccc6)CC[C@]5(C)[C@H]4CC[C@]23C)O[C@@H]1CC[C@H](C)C(=O)NCc1cn(C)nn1
inhibition [4]: 8.34%

Continued, values first:

inhibition [4]: 71.2%
Structure (SMILES): Cc1ccc(Cn2cc(CNC(=O)[C@@H](C)CC[C@H]3O[C@H]4C[C@H]5[C@@H]6CC[C@@H]7C[C@@H](OCc8ccccc8)CC[C@]7(C)[C@H]6CC[C@]5(C)[C@H]4[C@@H]3C)nn2)cc1

inhibition [4]: 55.8%
Structure (SMILES): C[C@H]1[C@H]2[C@H](C[C@H]3[C@@H]4CC[C@@H]5C[C@@H](OCc6ccccc6)CC[C@]5(C)[C@H]4CC[C@]23C)O[C@@H]1CC[C@H](C)C(=O)NCc1cn(Cc2ccc(Br)cc2)nn1

inhibition [4]: 70.7%
Structure (SMILES): C[C@H]1[C@H]2[C@H](C[C@H]3[C@@H]4CC[C@@H]5C[C@@H](OCc6ccccc6)CC[C@]5(C)[C@H]4CC[C@]23C)O[C@@H]1CC[C@H](C)C(=O)NCc1cn(Cc2ccc([N+](=O)[O-])cc2)nn1
